Like-named read-outs stand apart in the source and are kept apart here.
Biological target: IDH1-R132H recombinant protein (Homo sapiens, UniProt O75874, R132H)
Assay: IDH1-R132H enzymatic assay (NADPH consumption, diaphorase/resazurin readout)
Format: biochemical
Procedure: Assays were performed in a 384-well black plate. An aliquot of 250 nL of compound was incubated with 10 μL of 30 nM IDH1-R132H or 10 nM IDH1-R132C recombinant protein in assay buffer (50 mM Tris pH=7.5, 150 mM NaCl, 5 mM MgCl2, 0.1% (w/v) Bovine Serum Albumin, and 0.01% Triton X-100) in each well at 25° C. for 15 minutes. After the plate was centrifuged briefly, an aliquot of 10 μL of 2 mM α-ketoglutarate and 20 μM NADPH solution prepared in assay buffer was then added to each well and the reaction was maintained at 25° C. for 45 minutes. An aliquot of 10 μL of diaphorase solution (0.15 U/mL diaphorase and 30 μM Resazurin in assay buffer) was added to each well. […] The IC50 of a given compound was calculated by fitting the dose response curve of inhibition of NADPH consumption at a given concentration with the four parameter logistic equation.

[1] = read-out: Enzyme IDH1 R132H IC50 Range

IDH1-R132H recombinant protein, sequence (O75874 whole entry R132H): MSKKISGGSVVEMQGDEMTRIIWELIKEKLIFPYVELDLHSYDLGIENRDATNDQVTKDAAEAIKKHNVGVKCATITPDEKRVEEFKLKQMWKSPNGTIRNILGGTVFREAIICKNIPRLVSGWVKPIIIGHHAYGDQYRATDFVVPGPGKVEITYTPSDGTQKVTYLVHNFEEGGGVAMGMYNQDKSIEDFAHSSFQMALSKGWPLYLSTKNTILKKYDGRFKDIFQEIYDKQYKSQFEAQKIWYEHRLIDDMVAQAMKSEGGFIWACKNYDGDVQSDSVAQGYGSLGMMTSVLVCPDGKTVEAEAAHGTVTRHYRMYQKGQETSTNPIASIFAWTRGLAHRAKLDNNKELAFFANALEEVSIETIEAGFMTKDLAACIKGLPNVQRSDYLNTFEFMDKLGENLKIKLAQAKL

SMILES | IC50 [1] [nM] | IC50 [nM]
COc1cc(NCc2cc3cc(Cl)ccc3[nH]c2=O)ccc1S(C)(=O)=O [Compound I-15, 6-chloro-3-{[(4-methanesulfonyl-3-methoxyphenyl)amino]methyl}-1,2-dihydroquinolin-2-one] | > 1000 | –
Cc1cc2cc(CNc3ccc(-n4cnnn4)cc3)c(=O)[nH]c2cc1C [Compound I-51, 6,7-dimethyl-3-({[4-(1H-1,2,3,4-tetrazol-1-yl)phenyl]amino}methyl)-1,2-dihydroquinolin-2-one] | > 1000 | –
N#Cc1ccc(NCc2cc3cc(Cl)ccc3[nH]c2=O)cc1F [Compound I-37, 4-{[(6-chloro-2-oxo-1,2-dihydroquinolin-3-yl)methyl]amino}-2-fluorobenzonitrile] | – | 100 to 1000
COc1cc(NCc2cc3cc(Cl)ccc3[nH]c2=O)ccc1F [Compound I-41, 6-chloro-3-{[(4-fluoro-3-methoxyphenyl)amino]methyl}-1,2-dihydroquinolin-2-one] | > 1000 | –
O=c1[nH]c2ccc(Cl)cc2cc1CNc1ccc(-n2ccnc2)cc1 [Compound I-39, 6-chloro-3-({[4-(1H-imidazol-1-yl)phenyl]amino}methyl)-1,2-dihydroquinolin-2-one] | > 1000 | –
C[C@H](Nc1ccc(C#N)cc1S(C)(=O)=O)c1cc2cc(Cl)ccc2[nH]c1=O [Compound I-4, 4-{[(1S)-1-(6-chloro-2-oxo-1,2-dihydroquinolin-3-yl)ethyl]amino}-3-methanesulfonylbenzonitrile] | > 1000 | –
NC(=O)c1ccccc1NCc1cc2cc(Cl)ccc2[nH]c1=O [Compound I-40, 2-{[(6-chloro-2-oxo-1,2-dihydroquinolin-3-yl)methyl]amino}benzamide] | > 1000 | –
N#Cc1ccc(NCc2cc3cc(Cl)ccc3[nH]c2=O)cc1C(F)(F)F [Compound I-35, 4-{[(6-chloro-2-oxo-1,2-dihydroquinolin-3-yl)methyl]amino}-2-(trifluoromethyl)benzonitrile] | – | 100 to 1000
N#Cc1ccc(NCc2cc3cc(Cl)ccc3[nH]c2=O)cc1OCC(N)=O [Compound I-14, 2-(5-{[(6-chloro-2-oxo-1,2-dihydroquinolin-3-yl)methyl]amino}-2-cyanophenoxy)acetamide] | > 1000 | –
O=c1[nH]c2ccc(Cl)cc2cc1CNc1ccccc1F [Compound I-46, 6-chloro-3-{[(2-fluorophenyl)amino]methyl}-1,2-dihydroquinolin-2-one] | > 1000 | –
COc1cc(NCc2cc3cc(C)ccc3[nH]c2=O)ccc1-n1cnc(C)c1 [Compound I-18, 3-({[3-methoxy-4-(4-methyl-1H-imidazol-1-yl)phenyl]amino}methyl)-6-methyl-1,2-dihydroquinolin-2-one] | > 1000 | –
COc1cc(NCc2cc3ccccc3[nH]c2=O)ccc1-n1cnnn1 [Compound I-48, 3-({[3-methoxy-4-(1H-1,2,3,4-tetrazol-1-yl)phenyl]amino}methyl)-1,2-dihydroquinolin-2-one] | > 1000 | –
N#CCc1cccc(NCc2cc3cc(Cl)ccc3[nH]c2=O)c1 [Compound I-45, 2-(3-{[(6-chloro-2-oxo-1,2-dihydroquinolin-3-yl)methyl]amino}phenyl)acetonitrile] | > 1000 | –
Cc1cc2cc(CNc3cccc(S(=O)(=O)NC4=NCCC4)c3)c(=O)[nH]c2cc1C [Compound I-19, N-(3,4-dihydro-2H-pyrrol-5-yl)-3-{[(6,7-dimethyl-2-oxo-1,2-dihydroquinolin-3-yl)methyl]amino}benzene-1-sulfonamide] | > 1000 | –
COc1cc(NCc2cc3cc(C)c(C)cc3[nH]c2=O)ccc1C#N [Compound I-17, 4-{[(6,7-dimethyl-2-oxo-1,2-dihydroquinolin-3-yl)methyl]amino}-2-methoxybenzonitrile] | > 1000 | –
O=c1[nH]c2ccccc2cc1CNc1ccc(-n2cnnn2)cc1 [Compound I-49, 3-({[4-(1H-1,2,3,4-tetrazol-1-yl)phenyl]amino}methyl)-1,2-dihydroquinolin-2-one] | > 1000 | –
COc1cc(NCc2cc3cccnc3[nH]c2=O)ccc1C#N [Compound I-31, 2-methoxy-4-{[(2-oxo-1,2-dihydro-1,8-naphthyridin-3-yl)methyl]amino}benzonitrile] | > 1000 | –
COc1ccc2[nH]c(=O)c(CNc3ccc(-n4ccnc4)cc3)cc2c1 [Compound I-53, 3-({[4-(1H-imidazol-1-yl)phenyl]amino}methyl)-6-methoxy-1,2-dihydroquinolin-2-one] | > 1000 | –
NC(=O)COc1ccc(NCc2cc3cc(Cl)ccc3[nH]c2=O)cc1 [Compound I-43, 2-(4-{[(6-chloro-2-oxo-1,2-dihydroquinolin-3-yl)methyl]amino}phenoxy)acetamide] | > 1000 | –
COc1cc(NCc2cc3cc(Cl)ccc3[nH]c2=O)ccc1-n1ccnc1 [Compound I-12, 6-chloro-3-({[4-(1H-imidazol-1-yl)-3-methoxyphenyl]amino}methyl)-1,2-dihydroquinolin-2-one] | > 1000 | –
COc1cc(NCc2cc3cc(Cl)ccc3[nH]c2=O)ccc1Cl [Compound I-44, 6-chloro-3-{[(4-chloro-3-methoxyphenyl)amino]methyl}-1,2-dihydroquinolin-2-one] | > 1000 | –
COc1cc(N[C@H](C)c2cc3cc(Cl)ccc3[nH]c2=O)ccc1C#N [Compound I-3, 4-{[(1R)-1-(6-chloro-2-oxo-1,2-dihydroquinolin-3-yl)ethyl]amino}-2-methoxybenzonitrile] | > 1000 | –

Further lines, with some results ahead:

IC50 [1] [nM] | SMILES | IC50 [nM]
> 1000 | CNC(=O)c1ccc(NCc2cc3cc(Cl)ccc3[nH]c2=O)cc1 [Compound I-42, 4-{[(6-chloro-2-oxo-1,2-dihydroquinolin-3-yl)methyl]amino}-N-methylbenzamide] | –
100 to 1000 | COc1cc(NCc2cc3ccc(Cl)cc3[nH]c2=O)ccc1C#N [Compound I-29, 4-{[(7-chloro-2-oxo-1,2-dihydroquinolin-3-yl)methyl]amino}-2-methoxybenzonitrile] | –
10 to 100 | COc1cc(NCc2cc3cc(Cl)c(O)cc3[nH]c2=O)ccc1C#N [Compound I-57, 4-{[(6-chloro-7-hydroxy-2-oxo-1,2-dihydroquinolin-3-yl)methyl]amino}-2-methoxybenzonitrile] | –
100 to 1000 | CCOc1cc(NCc2cc3cc(Cl)ccc3[nH]c2=O)ccc1C#N [Compound I-13, 4-{[(6-chloro-2-oxo-1,2-dihydroquinolin-3-yl)methyl]amino}-2-ethoxybenzonitrile] | –
100 to 1000 | COc1cc(NCc2cc3cc(C)c(C)cc3[nH]c2=O)ccc1-n1cnnn1 [Compound I-20, 3-({[3-methoxy-4-(1H-1,2,3,4-tetrazol-1-yl)phenyl]amino}methyl)-6,7-dimethyl-1,2-dihydroquinolin-2-one] | –
100 to 1000 | CCOc1ccc2[nH]c(=O)c(CNc3ccc(C#N)c(OC)c3)cc2c1 [Compound I-55, 4-{[(6-ethoxy-2-oxo-1,2-dihydroquinolin-3-yl)methyl]amino}-2-methoxybenzonitrile] | –
10 to 100 | COc1cc(NCc2cc3cc(Cl)c(OCc4ccnc(C)c4)cc3[nH]c2=O)ccc1C#N [Compound I-73, 4-[({6-chloro-7-[(2-methylpyridin-4-yl)methoxy]-2-oxo-1,2-dihydroquinolin-3-yl}methyl)amino]-2-methoxybenzonitrile] | –
100 to 1000 | COc1ccc2cc(CNc3ccc(C#N)c(OC)c3)c(=O)[nH]c2c1 [Compound I-56, 2-methoxy-4-{[(7-methoxy-2-oxo-1,2-dihydroquinolin-3-yl)methyl]amino}benzonitrile] | –
100 to 1000 | COc1cc(NCc2cc3cc(I)ccc3[nH]c2=O)ccc1C#N [Compound I-28, 4-{[(6-iodo-2-oxo-1,2-dihydroquinolin-3-yl)methyl]amino}-2-methoxybenzonitrile] | –
100 to 1000 | COc1cc(NCc2cc3cc(Cl)cc(O)c3[nH]c2=O)ccc1C#N [Compound I-96, 4-{[(6-chloro-8-hydroxy-2-oxo-1,2-dihydroquinolin-3-yl)methyl]amino}-2-methoxybenzonitrile] | –
100 to 1000 | COc1cc(C#N)ccc1NCc1cc2cc(Cl)ccc2[nH]c1=O [Compound I-34, 4-{[(6-chloro-2-oxo-1,2-dihydroquinolin-3-yl)methyl]amino}-3-methoxybenzonitrile] | –
100 to 1000 | COc1cc(NCc2cc3cc(C)ccc3[nH]c2=O)ccc1C#N [Compound I-50, 2-methoxy-4-{[(6-methyl-2-oxo-1,2-dihydroquinolin-3-yl)methyl]amino}benzonitrile] | –
100 to 1000 | CCOCCOc1cc2[nH]c(=O)c(CNc3ccc(C#N)c(OC)c3)cc2cc1Cl [Compound I-93, 4-({[6-chloro-7-(2-ethoxyethoxy)-2-oxo-1,2-dihydroquinolin-3-yl]methyl}amino)-2-methoxybenzonitrile] | –
100 to 1000 | COc1ccc2[nH]c(=O)c(CNc3ccc(C#N)c(OC)c3)cc2c1 [Compound I-52, 2-methoxy-4-{[(6-methoxy-2-oxo-1,2-dihydroquinolin-3-yl)methyl]amino}benzonitrile] | –
100 to 1000 | COc1cc(NCc2cc3ccc(C)cc3[nH]c2=O)ccc1C#N [Compound I-54, 2-methoxy-4-{[(7-methyl-2-oxo-1,2-dihydroquinolin-3-yl)methyl]amino}benzonitrile] | –
100 to 1000 | N#Cc1ccc(NCc2cc3cc(Cl)ccc3[nH]c2=O)cc1OCCO [Compound I-11, 4-{[(6-chloro-2-oxo-1,2-dihydroquinolin-3-yl)methyl]amino}-2-(2-hydroxyethoxy)benzonitrile] | –
10 to 100 | COc1cc(NCc2cc3cc(Br)ccc3[nH]c2=O)ccc1C#N [Compound I-23, 4-{[(6-bromo-2-oxo-1,2-dihydroquinolin-3-yl)methyl]amino}-2-methoxybenzonitrile] | –

— patent publication US10266495B2, “Phenyl quinolinone derivatives as mutant-isocitrate dehydrogenase inhibitors” (FORMA TM2, Inc., priority 2014, dated 2019)
